Laboratory results reported in patent publication US8999998B2, “Pyrazolopyrimidine JAK inhibitor compounds and methods” (Genentech, Inc., priority 2009, dated 2015).

Key:
Assay type in all cases: biochemical
JAK2 kinase domain = JAK2 kinase domain (Homo sapiens (Human), UniProt O60674); experiment: JAK2 inhibition assay (Caliper LabChip, isolated kinase domain); conditions: 25 uM ATP, 0.2 nM JAK2; read-out: JAK2 enzymatic activity (Ki)
From the text: (§1) The catalytically active kinase domain of human JAK1, JAK2, JAK3 or TYK2 was purified from extracts of SF9 insect cells infected with a recombinant baculovirus expression vector encoding the human JAK1, JAK2, JAK3 or TYK2 kinase domains (JAK1 amino acid residues N852-D1154 according to the numbering of GenBank sequence accession number P23458, JAK2 amino acid residues D812-G1132 according to the numbering of GenBank sequence accession number NP_004963.1; JAK3 amino acid residues S783-S1124 according to the numbering of GenBank sequence accession number P52333, and TYK2 amino acid residues N873-C1187 according to the numbering of GenBank sequence accession number P29597). The activity of the JAK1, JAK2, JAK3 or TYK2 kinase domains can be measured by a number of direct and indirect methods, including quantification of phosphorylation of peptide substrates derived from the human JAK3 protein (Saltzman et al., Biochem. Biophys. Res. Commun. 246:627-633 (2004)). The activity of the JAK1, JAK2, JAK3 or TYK2 kinase domains was measured in vitro by monitoring phosphorylation of JAK3 derived peptides using the Caliper LabChip technology (see Examples).
(§2) The activity of the isolated JAK1, JAK2 or TYK2 kinase domain was measured by monitoring phosphorylation of a peptide derived from JAK3 ([…] fluorescently labeled on the N-terminus with 5-carboxyfluorescein using the Caliper LabChip technology (Caliper Life Sciences, Hopkinton, Mass.). […] Reactions were incubated at 22° C. in 384-well polypropylene microtiter plates for 30 minutes and then stopped by addition of 25 uL of an EDTA containing solution (100 mM Hepes pH 7.2, 0.015% Brij-35, 150 mM EDTA), resulting in a final EDTA concentration of 50 mM. After termination of the kinase reaction, the proportion of phosphorylated product was determined as a fraction of total peptide substrate using the Caliper LabChip 3000 according to the manufacturer's specifications. Ki values were then determined using the Morrison tight binding model. Morrison, J. F., Biochim. Biophys. Acta. 185:269-296 (1969); William, J. W. and Morrison, J. F., Meth. Enzymol., 63:437-467 (1979).

JAK1 kinase domain = JAK1 kinase domain (Homo sapiens (Human), UniProt P23458); experiment: JAK1 inhibition assay (Caliper LabChip, isolated kinase domain); conditions: 25 uM ATP, 1.5 nM JAK1; read-out: JAK1 enzymatic activity (Ki)
Sequence of JAK1 kinase domain (P23458 852-1154): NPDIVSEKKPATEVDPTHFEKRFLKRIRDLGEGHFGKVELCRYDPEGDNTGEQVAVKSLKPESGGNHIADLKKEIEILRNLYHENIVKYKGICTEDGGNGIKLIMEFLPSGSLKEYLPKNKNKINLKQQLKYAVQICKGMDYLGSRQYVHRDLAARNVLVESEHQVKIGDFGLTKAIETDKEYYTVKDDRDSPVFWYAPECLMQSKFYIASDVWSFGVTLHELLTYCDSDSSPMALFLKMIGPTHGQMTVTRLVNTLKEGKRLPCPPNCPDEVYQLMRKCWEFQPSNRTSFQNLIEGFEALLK
From the text: as §1, §2

JAK3 kinase domain = JAK3 kinase domain (Homo sapiens (Human), UniProt P52333); experiment: JAK3 inhibition assay (Caliper LabChip, isolated kinase domain); conditions: 5 uM ATP, 5 nM JAK3; read-out: JAK3 enzymatic activity (Ki)
Sequence of JAK3 kinase domain (P52333 783-1124): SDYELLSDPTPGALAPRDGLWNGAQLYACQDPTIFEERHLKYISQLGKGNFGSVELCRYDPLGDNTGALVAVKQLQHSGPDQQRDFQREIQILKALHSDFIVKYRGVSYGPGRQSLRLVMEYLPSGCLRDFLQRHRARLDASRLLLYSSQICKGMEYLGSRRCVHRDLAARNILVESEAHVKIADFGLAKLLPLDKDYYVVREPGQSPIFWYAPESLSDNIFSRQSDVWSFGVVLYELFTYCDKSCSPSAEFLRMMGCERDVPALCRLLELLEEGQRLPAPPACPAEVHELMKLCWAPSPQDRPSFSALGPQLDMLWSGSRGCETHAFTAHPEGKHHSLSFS
From the text: as §1, with “Previous studies have shown that the isolated kinase domains of human JAK1, JAK2, JAK3 or TYK2 phosphorylate peptide substrates in in vitro kinase assays (Saltzman et al., Biochem. Biophys. Res. Commun. 246:627-633 (2004)). The catalytically” for “The catalytically”
as §2, with “JAK3” for “JAK1, JAK2 or TYK2”

TYK2 kinase domain = TYK2 kinase domain (Homo sapiens (Human), UniProt P29597); experiment: TYK2 inhibition assay (Caliper LabChip, isolated kinase domain); conditions: 25 uM ATP, 1 nM TYK2; read-out: TYK2 enzymatic activity (Ki)
Sequence of TYK2 kinase domain (P29597 873-1187): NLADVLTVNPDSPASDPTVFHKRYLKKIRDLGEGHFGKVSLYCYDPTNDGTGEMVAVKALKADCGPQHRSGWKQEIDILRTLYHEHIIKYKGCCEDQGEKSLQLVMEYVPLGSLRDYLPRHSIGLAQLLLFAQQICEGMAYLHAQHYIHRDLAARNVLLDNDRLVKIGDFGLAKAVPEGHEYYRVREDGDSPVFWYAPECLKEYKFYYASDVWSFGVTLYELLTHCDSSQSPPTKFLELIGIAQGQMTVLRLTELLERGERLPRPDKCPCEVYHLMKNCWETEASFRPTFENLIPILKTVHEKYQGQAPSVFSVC
From the text: as §1, §2

Sequence of JAK2 kinase domain (O60674 812-1132): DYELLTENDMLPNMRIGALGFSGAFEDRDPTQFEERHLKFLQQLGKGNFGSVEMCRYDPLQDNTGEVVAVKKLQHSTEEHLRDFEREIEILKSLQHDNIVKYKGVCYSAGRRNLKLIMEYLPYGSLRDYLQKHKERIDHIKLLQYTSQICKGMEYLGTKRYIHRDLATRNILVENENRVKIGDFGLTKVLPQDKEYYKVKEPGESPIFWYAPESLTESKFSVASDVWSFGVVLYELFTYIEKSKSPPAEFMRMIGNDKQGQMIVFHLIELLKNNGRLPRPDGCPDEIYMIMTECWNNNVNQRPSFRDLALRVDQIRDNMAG

Ki (JAK2 kinase domain) [nM] | Ki (JAK1 kinase domain) [nM] | Ki (JAK3 kinase domain) [nM] | Ki (TYK2 kinase domain) [nM] | SMILES
3.1 | 0.7 | 270 | 9.1 | COc1ccc(Cl)cc1-c1nn(CC(=O)N2CCCC2C)cc1NC(=O)c1cnn2cccnc12 (centres unmarked) [Example 283, N-(3-(5-chloro-2-methoxyphenyl)-1-(2-(2-methylpyrrolidin-1-yl)-2-oxoethyl)-1H-pyrazol-4-yl)pyrazolo[1,5-a]pyrimidine-3-carboxamide]
5.8 | 1.6 | 780 | 14 | COc1ncc(Cl)cc1-c1nn(CC(=O)N(C)C)cc1NC(=O)c1cnn2cccnc12 [Example 499, N-(3-(5-chloro-2-methoxypyridin-3-yl)-1-(2-(dimethylamino)-2-oxoethyl)-1H-pyrazol-4-yl)pyrazolo[1,5-a]pyrimidine-3-carboxamide]
31.3 | 176 | 390 | 230 | N#CC1CCN(c2n[nH]cc2NC(=O)c2cnn3cccnc23)CC1 [Example 395, N-(3-(4-cyanopiperidin-1-yl)-1H-pyrazol-4-yl)pyrazolo[1,5-a]pyrimidine-3-carboxamide]
6.2 | 2.3 | 710 | 47 | COc1ccc(F)cc1-c1nn(CC2(O)CCOCC2)cc1NC(=O)c1cnn2cccnc12 [Example 364, N-(3-(5-fluoro-2-methoxyphenyl)-1-((4-hydroxytetrahydro-2H-pyran-4-yl)methyl)-1H-pyrazol-4-yl)pyrazolo[1,5-a]pyrimidine-3-carboxamide]
15.2 | 83.7 | 150 | 98 | O=C(Nc1ccnn1-c1ccccc1Cl)c1cnn2cccnc12 [Example 51, N-(1-(2-chlorophenyl)-1H-pyrazol-5-yl)pyrazolo[1,5-a]pyrimidine-3-carboxamide]
3.3 | 35.1 | 73.9 | 104 | Cc1cc(NC(=O)c2cnn3cccnc23)n(-c2cc(Cl)ccc2Cl)n1 [Example 41, N-(1-(2,5-dichlorophenyl)-3-methyl-1H-pyrazol-5-yl)pyrazolo[1,5-a]pyrimidine-3-carboxamide]
159 | 1200 |  | 850 | O=C(Nc1ccnn1-c1ccc(Cl)cc1)c1cnn2cccnc12 [Example 54, N-(1-(4-chlorophenyl)-1H-pyrazol-5-yl)pyrazolo[1,5-a]pyrimidine-3-carboxamide]
38.5 | 12 | 1500 | 350 | COc1cnc(C(F)(F)F)cc1-c1nn(CC(C)(C)O)cc1NC(=O)c1cnn2cccnc12 [Example 143, N-(1-(2-hydroxy-2-methylpropyl)-3-(5-methoxy-2-(trifluoromethyl)pyridin-4-yl)-1H-pyrazol-4-yl)pyrazolo[1,5-a]pyrimidine-3-carboxamide]
0.4 | 0.7 | 13 | 2.1 | COc1ccc(Cl)cc1-c1nc(C)sc1NC(=O)c1cnn2cccnc12 [Example 170, N-(4-(5-chloro-2-methoxyphenyl)-2-methylthiazol-5-yl)pyrazolo[1,5-a]pyrimidine-3-carboxamide]
26.3 | 85.9 | 240 | 410 | CC1CCCCN1c1nn(CC(C)(C)O)cc1NC(=O)c1cnn2cccnc12 (centres unmarked) [Example 379, N-(1-(2-hydroxy-2-methylpropyl)-3-(2-methylpiperidin-1-yl)-1H-pyrazol-4-yl)pyrazolo[1,5-a]pyrimidine-3-carboxamide]
23 | 153 | 200 | 140 | O=C(Nc1ccncc1-c1cccc(F)c1)c1cnn2cccnc12 [Example 63, N-(3-(3-fluorophenyl)pyridin-4-yl)pyrazolo[1,5-a]pyrimidine-3-carboxamide]
1.5 | 4.8 | 53 | 6.6 | COc1ncc(C#N)cc1-c1n[nH]cc1NC(=O)c1cnn2cccnc12 [Example 158, N-(3-(5-Cyano-2-methoxypyridin-3-yl)-1H-pyrazol-4-yl)pyrazolo[1,5-a]pyrimidine-3-carboxamide]
